Patent US20040127403A1, “Methods for treating and preventing Gram-positive bacteremias” (priority 2002, published 2004)
≈ marks a conversion by molar mass, not a printed value.

Assays:
Test in all cases: MIC, NCCLS broth microdilution
Format in all cases: cell-based
S. epidermidis ATCC18972 = conditions: Staphylococcus epidermidis, ATCC18972, S. epidermidis ATCC18972
S. epidermidis ATCC35984 = conditions: Staphylococcus epidermidis, ATCC35984, S. epidermidis ATCC35984
E. faecium A-5960 Line-R = conditions: Enterococcus faecium, A5960LINER
Method: (§1) The efficacy of ramoplanin was tested against recently isolated VRE that are resistant to linezolid and quinupristin/dalfopristin. The culture media containing ramoplanin was supplemented with 0.02% bovine serum albumin (BSA) to prevent ramoplanin binding to the plastic. MIC values were determined in both cation-adjusted Mueller-Hinton broth (CAMHB) and trypticase soy broth (TSB) by the National Committee for Clinical Laboratory Standards (NCCLS) broth microdilution method. Macromolecular biosynthesis experiments were done by following the incorporation of carbon-14-labeled N-acetylglucosamine, acetic acid, amino acids, uridine, and thymidine into peptidoglycan, fatty acid, protein, RNA and DNA, respectively.

S. aureus ATCC12600 MRSA = conditions: Staphylococcus aureus
Method: as §1

E. faecium A2735 Syn-R = conditions: Enterococcus faecium, A2735SYNR
Method: as §1

E. faecium UA210 = conditions: Enterococcus faecium, UA210, E. faecium UA210
Method: as §1

E. gallinarum UA604 = conditions: Enterococcus gallinarum, GALLINARUM
Method: as §1

S. aureus ATCC43300 MRSA = test system: S. aureus ATCC43300 MRSA
Method: as §1

E. faecium 1836 = conditions: Enterococcus faecium, 1836, E. faecium 1836
Method: as §1

S. epidermidis ATCC14990 = conditions: Staphylococcus epidermidis, ATCC14990, S. epidermidis ATCC14990
Method: as §1

S. aureus ATCC27659 MSSA = conditions: Staphylococcus aureus
Method: as §1

S. epidermidis ATCC35983 = conditions: Staphylococcus epidermidis, ATCC35983, S. epidermidis ATCC35983
Method: as §1

E. faecium UA392 = conditions: Enterococcus faecium, UA392, E. faecium UA392
Method: as §1

E. faecium A5959 Line-R = conditions: Enterococcus faecium, A5959LINER
Method: as §1

E. faecalis A7789 Line-R = conditions: Enterococcus faecalis, A7789LINER
Method: as §1

E. faecalis ATCC51299 = conditions: Enterococcus faecalis, ATCC51299, E. faecalis ATCC51299
Method: as §1

[1] = test system: S. aureus ATCC700699 MRSA/VISA
Method: as §1

E. faecalis ATCC29212 = conditions: Enterococcus faecalis, ATCC29212, E. faecalis ATCC29212
Method: as §1

E. faecium A6349 Line-R = conditions: Enterococcus faecium, A6349LINER
Method: as §1

E. faecium A6343 Line-R = conditions: Enterococcus faecium, A6343LINER
Method: as §1

E. faecium A6345 Line-R = conditions: for MIC: Enterococcus faecium, A6345LINER, E. faecium A6345 Line-R
Method: as §1

S. epidermidis ATCC12228 = conditions: Staphylococcus epidermidis, ATCC12228, S. epidermidis ATCC12228
Method: as §1

Compound: CN[C@H](CC(C)C)C(=O)N[C@H]1C(=O)N[C@@H](CC(N)=O)C(=O)N[C@H]2C(=O)N[C@H]3C(=O)N[C@H](C(=O)N[C@H](C(=O)O)c4cc(O)cc(O)c4-c4cc3ccc4O)[C@H](O)c3ccc(c(Cl)c3)Oc3cc2cc(c3O[C@@H]2O[C@H](CO)[C@@H](O)[C@H](O)[C@H]2O[C@H]2C[C@](C)(N)[C@H](O)[C@H](C)O2)Oc2ccc(cc2Cl)[C@H]1O [Vancomycin]
- MIC (S. epidermidis ATCC18972; CAMHB): 4 µg/mL (≈ 2.76 µM)
- MIC (S. epidermidis ATCC18972; TSB): 4 µg/mL (≈ 2.76 µM)
- MIC (S. epidermidis ATCC18972; Table 6, 1st): 2 µg/mL (≈ 1.38 µM)
- MIC (S. epidermidis ATCC18972; Table 6, 2nd): 2 µg/mL (≈ 1.38 µM)
- MIC (S. epidermidis ATCC35984; CAMHB): 4 µg/mL (≈ 2.76 µM)
- MIC (S. epidermidis ATCC35984; TSB): 4 µg/mL (≈ 2.76 µM)
- MIC (S. epidermidis ATCC35984; Table 6, 1st): 2 µg/mL (≈ 1.38 µM)
- MIC (S. epidermidis ATCC35984; Table 6, 2nd): 2 µg/mL (≈ 1.38 µM)
- MIC (E. faecium A-5960 Line-R; CAMHB): > 16 µg/mL
- MIC (E. faecium A-5960 Line-R; TSB): > 16 µg/mL
- MIC (E. faecium A-5960 Line-R; Table 6, 1st): > 16 µg/mL
- MIC (E. faecium A-5960 Line-R; Table 6, 2nd): > 64 µg/mL
- MIC (S. aureus ATCC12600 MRSA; CAMHB): 2 µg/mL (≈ 1.38 µM)
- MIC (S. aureus ATCC12600 MRSA; TSB): 2 µg/mL (≈ 1.38 µM)
- MIC (S. aureus ATCC12600 MRSA; Table 6, 1st): 1 µg/mL (≈ 0.69 µM)
- MIC (S. aureus ATCC12600 MRSA; Table 6, 2nd): 1 µg/mL (≈ 0.69 µM)
- MIC (E. faecium A2735 Syn-R; CAMHB): > 16 µg/mL
- MIC (E. faecium A2735 Syn-R; TSB): > 16 µg/mL
- MIC (E. faecium A2735 Syn-R; Table 6, 1st): > 16 µg/mL
- MIC (E. faecium A2735 Syn-R; Table 6, 2nd): > 64 µg/mL
- MIC (E. faecium UA210; CAMHB): > 16 µg/mL
- MIC (E. faecium UA210; TSB): > 16 µg/mL
- MIC (E. faecium UA210; Table 6, 1st): > 16 µg/mL
- MIC (E. faecium UA210; Table 6, 2nd): > 64 µg/mL
- MIC (E. gallinarum UA604; CAMHB): 1 µg/mL (≈ 0.69 µM)
- MIC (E. gallinarum UA604; TSB): 2 µg/mL (≈ 1.38 µM)
- MIC (E. gallinarum UA604; Table 6, 1st): 0.5 µg/mL (≈ 0.345 µM)
- MIC (E. gallinarum UA604; Table 6, 2nd): 0.5 µg/mL (≈ 0.345 µM)
- MIC (S. aureus ATCC43300 MRSA; S. aureus ATCC43300 MRSA/VISA, Table 6, 2nd): 1 µg/mL (≈ 0.69 µM)
- MIC (S. aureus ATCC43300 MRSA; S. aureus ATCC43300 MRSA, TSB): 2, 2 μg/ml
- MIC (S. aureus ATCC43300 MRSA; Staphylococcus aureus): 2 µg/mL (≈ 1.38 µM)
- MIC (S. aureus ATCC43300 MRSA; Staphylococcus aureus, ATCC 43300 / MRSA / VISA): 1 µg/mL (≈ 0.69 µM)
- MIC (E. faecium 1836; CAMHB): > 16 µg/mL
- MIC (E. faecium 1836; TSB): > 16 µg/mL
- MIC (E. faecium 1836; Table 6, 1st): > 16 µg/mL
- MIC (E. faecium 1836; Table 6, 2nd): > 64 µg/mL
- MIC (S. epidermidis ATCC14990; CAMHB): 4 µg/mL (≈ 2.76 µM)
- MIC (S. epidermidis ATCC14990; TSB): 4 µg/mL (≈ 2.76 µM)
- MIC (S. epidermidis ATCC14990; Table 6, 1st): 2 µg/mL (≈ 1.38 µM)
- MIC (S. epidermidis ATCC14990; Table 6, 2nd): 2 µg/mL (≈ 1.38 µM)
- MIC (S. aureus ATCC27659 MSSA; CAMHB): 1 µg/mL (≈ 0.69 µM)
- MIC (S. aureus ATCC27659 MSSA; TSB): > 16 µg/mL
- MIC (S. aureus ATCC27659 MSSA; Table 6, 1st): 1 µg/mL (≈ 0.69 µM)
- MIC (S. aureus ATCC27659 MSSA; Table 6, 2nd): 1 µg/mL (≈ 0.69 µM)
- MIC (S. epidermidis ATCC35983; CAMHB): 4 µg/mL (≈ 2.76 µM)
- MIC (S. epidermidis ATCC35983; TSB): 4 µg/mL (≈ 2.76 µM)
- MIC (S. epidermidis ATCC35983; Table 6, 1st): 2 µg/mL (≈ 1.38 µM)
- MIC (S. epidermidis ATCC35983; Table 6, 2nd): 2 µg/mL (≈ 1.38 µM)
- MIC (E. faecium UA392; CAMHB): 1 µg/mL (≈ 0.69 µM)
- MIC (E. faecium UA392; TSB): 2 µg/mL (≈ 1.38 µM)
- MIC (E. faecium UA392; Table 6, 1st): 2 µg/mL (≈ 1.38 µM)
- MIC (E. faecium UA392; Table 6, 2nd): 2 µg/mL (≈ 1.38 µM)
- MIC (E. faecium A5959 Line-R; CAMHB): > 16 µg/mL
- MIC (E. faecium A5959 Line-R; TSB): > 16 µg/mL
- MIC (E. faecium A5959 Line-R; Table 6, 1st): > 16 µg/mL
- MIC (E. faecium A5959 Line-R; Table 6, 2nd): > 64 µg/mL
- MIC (E. faecalis A7789 Line-R; CAMHB): 2 µg/mL (≈ 1.38 µM)
- MIC (E. faecalis A7789 Line-R; TSB): 2 µg/mL (≈ 1.38 µM)
- MIC (E. faecalis A7789 Line-R; Table 6, 1st): 1 µg/mL (≈ 0.69 µM)
- MIC (E. faecalis A7789 Line-R; Table 6, 2nd): 1 µg/mL (≈ 0.69 µM)
- MIC (E. faecalis ATCC51299; CAMHB): > 16 µg/mL
- MIC (E. faecalis ATCC51299; TSB): > 16 µg/mL
- MIC (E. faecalis ATCC51299; Table 6, 1st): > 16 µg/mL
- MIC (E. faecalis ATCC51299; Table 6, 2nd): 32 µg/mL (≈ 22.1 µM)
- MIC ([1]; S. aureus ATCC700699 MRSA/VISA, TSB): 2, 2 μg/ml
- MIC ([1]; S. aureus ATCC700699 MRSA/VISA, Table 6, 1st): 2 µg/mL (≈ 1.38 µM)
- MIC ([1]; S. aureus ATCC700699 MRSA/VISA, Table 6, 2nd): 2 µg/mL (≈ 1.38 µM)
- MIC ([1]; Staphylococcus aureus): 2 µg/mL (≈ 1.38 µM)
- MIC (E. faecalis ATCC29212; CAMHB): 4 µg/mL (≈ 2.76 µM)
- MIC (E. faecalis ATCC29212; Table 6, 1st): 2 µg/mL (≈ 1.38 µM)
- MIC (E. faecalis ATCC29212; Table 6, 2nd): 2 µg/mL (≈ 1.38 µM)
- MIC (E. faecium A6349 Line-R; Table 6, 1st): > 16 µg/mL
- MIC (E. faecium A6349 Line-R; Table 6, 2nd): > 64 µg/mL
- MIC (E. faecium A6343 Line-R; CAMHB): 2 µg/mL (≈ 1.38 µM)
- MIC (E. faecium A6343 Line-R; TSB): 2 µg/mL (≈ 1.38 µM)
- MIC (E. faecium A6343 Line-R; Table 6, 1st): 1 µg/mL (≈ 0.69 µM)
- MIC (E. faecium A6343 Line-R; Table 6, 2nd): 1 µg/mL (≈ 0.69 µM)
- reference MIC for strains used for killing curve (E. faecium A6345 Line-R; E. faecium A6345 Line-R. as printed, second row of Table 3): >64 µg/mL
- reference MIC for strains used for killing curve (E. faecium A6345 Line-R; E. faecium A6345 Line-R., first row of Table 3): >64 µg/mL
- MIC (E. faecium A6345 Line-R; CAMHB): > 16 µg/mL
- MIC (E. faecium A6345 Line-R; TSB): > 16 µg/mL
- MIC (E. faecium A6345 Line-R; Table 6, 1st): > 16 µg/mL
- MIC (E. faecium A6345 Line-R; Table 6, 2nd): > 64 µg/mL
- MIC (S. epidermidis ATCC12228; CAMHB): 4 µg/mL (≈ 2.76 µM)
- MIC (S. epidermidis ATCC12228; TSB): 4 µg/mL (≈ 2.76 µM)
- MIC (S. epidermidis ATCC12228; Table 6, 1st): 2 µg/mL (≈ 1.38 µM)
- MIC (S. epidermidis ATCC12228; Table 6, 2nd): 2 µg/mL (≈ 1.38 µM)
